Assay results reported in patent publication US8299085B2, “Quinazoline derivatives” (Novartis AG, priority 2004, dated 2012).

How the values were obtained:
[1] = tested on: patients with diabetic neuropathy; test: Clinical study, chronic pain in patients with diabetic neuropathy; type: in vivo, human; conditions: 2400 mg/day, Maintenance and Follow-up Periods, statistically significant
Protocol: Patients are randomized to receive 2400 mg/day of the compound or placebo in a 1:1 ratio.
The study consists of a Pre-randomization Phase (1 week) and a Double-blind Phase (5 weeks). The double-blind Phase consists of three periods: a one week Titration Period, a three-week Maintenance Period and a one-week Follow-up Period.
During the 1-week Pre-randomization Phase, the eligibility of the patients is evaluated. Patients meeting all inclusion/exclusion criteria are randomized to either the compound or placebo in the Double-blind Phase. During the 1-week Titration Period, study medication is up-titrated from 800 mg/day (given b.i.d.) to 2400 mg/day (given b.i.d.). Patients who complete the 1-week Titration Period then enter the 3-week Maintenance Period. Patients who complete the 3-week Maintenance period or prematurely discontinue double-blind treatment then enter the 1-week Follow-up Period. Study medication is completely withdrawn on entry into the Follow-up Period. During the Double-blind Phase, serial efficacy and safety assessments are obtained. […]
The SF-MPQ total pain score at the end of the Maintenance Period is analyzed using an analysis of covariance model adjusting for the effect of treatment on post-treatment scores by using the baseline SF-MPQ total pain score as a covariate. Average weekly pain severity is analyzed using an analysis of covariance model with repeated measures using the treatment week and the mean pain severity rating during the Pre-randomization Phase as covariates. Usage of rescue medication during the Double-blind Phase is analyzed using the Cochran-Mantel-Haenszel test controlling for center. The mean pain severity rating during the Follow-up Period (rebound pain) is analyzed using an analysis of covariance model adjusting for the effect of treatment on the mean pain severity rating of the Follow-up Period with the mean pain severity rating during the Prerandomization Phase as a covariate.

Structure (SMILES) | melting point | pain severity ratings relative to placebo [1]
CS(=O)(=O)Nn1c(=O)[nH]c2cc([N+](=O)[O-])c(-n3cnc(CO)c3)cc2c1=O [Example 2, N-[6-(4-Hydroxymethyl-imidazol-1-yl)-7-nitro-2,4-dioxo-1,4-dihydro-2H-quinazolin-3-yl]-methanesulfonamide] | > 300 °C | 
CS(=O)(=O)Nn1c(=O)[nH]c2cc([N+](=O)[O-])c(NCC(O)c3cccs3)cc2c1=O (centres unmarked) [Example 6, N-[6-(2-Hydroxy-2-thiophen-2-yl-ethylamino)-7-nitro-2,4-dioxo-1,4-dihydro-2H-quinazolin-3-yl]-methanesulfonamide] | 110 °C (dec.) | 
COc1cc2c(=O)n(NS(C)(=O)=O)c(=O)[nH]c2cc1[N+](=O)[O-] [Example 15, N-(6-Methoxy-7-nitro-2,4-dioxo-1,4-dihydro-2H-quinazolin-3-yl)-methanesulfonamide] | > 280 °C | 
CS(=O)(=O)Nn1c(=O)[nH]c2cc(C(F)(F)F)c(N3CCOCC3)cc2c1=O [Example 68, N-(6-Morpholin-4-yl-2,4-dioxo-7-trifluoromethyl-1,4-dihydro-2H-quinazolin-3-yl) -methanesulfonamide] |  | decrease pain severity ratings relative to placebo
CCS(=O)(=O)Nn1c(=O)[nH]c2cc(C(F)(F)F)c(-n3cnnc3)cc2c1=O [Example 70, Ethanesulfonic acid (2,4-dioxo-6-[1,2,4]triazol-4-yl-7-trifluoromethyl-1,4-dihydro-2H-quinazolin-3-yl)-amide] | 185 to 195 °C | 
CCOC(=O)c1ncn(-c2cc3c(=O)n(NS(C)(=O)=O)c(=O)[nH]c3cc2C(F)(F)F)n1 [Example 71, 1-(3-Methanesulfonylamino-2,4-dioxo-7-trifluoromethyl-1,2,3,4-tetrahydro-quinazolin-6-yl)-1H-[1,2,4]triazole-3-carboxylic acid ethyl ester] | 267 to 270 °C | 
CNC(=O)c1ncn(-c2cc3c(=O)n(NS(C)(=O)=O)c(=O)[nH]c3cc2C(F)(F)F)n1 [Example 72, 1-(3-Methanesulfonylamino-2,4-dioxo-7-trifluoromethyl-1,2,3,4-tetrahydro-quinazolin-6-yl)-1H-[1,2,4]triazole-3-carboxylic acid methylamide] | 257 to 260 °C | 
CS(=O)(=O)Nn1c(=O)[nH]c2cc(C(F)(F)F)c(-n3ccnc3)cc2c1=O [Example 73, N-(6-Imidazol-1-yl-2,4-dioxo-7-trifluoromethyl-1,4-dihydro-2H-quinazolin-3-yl)-methanesulfonamide] | 285 to 301 °C (dec.) | 
CS(=O)(=O)Nn1c(=O)[nH]c2cc(C(F)(F)F)c(N3CCSCC3)cc2c1=O [Example 74, N-(2,4-Dioxo-6-thiomorpholin-4-yl-7-trifluoromethyl-1,4-dihydro-2H-quinazolin-3-yl)-methanesulfonamide] | 245 to 260 °C (dec.) | 
CS(=O)(=O)Nn1c(=O)[nH]c2cc(C(F)(F)F)c(N3CCCOCC3)cc2c1=O [Example 75, N-(6-[1,4]Oxazepan-4-yl-2,4-dioxo-7-trifluoromethyl-1,4-dihydro-2H-quinazolin-3-yl)-methanesulfonamide] |  | decrease pain severity ratings relative to placebo
CS(=O)(=O)Nn1c(=O)[nH]c2cc(C(F)(F)F)c(N3CCC(F)(F)CC3)cc2c1=O [Example 76, N-[6-(4,4-Difluoro-piperidin-1-yl)-2,4-dioxo-7-trifluoromethyl-1,4-dihydro-2H-quinazolin-3-yl]-methanesulfonamide] | 249 to 261 °C (dec.) | 
CS(=O)(=O)Nn1c(=O)[nH]c2cc(C(F)(F)F)c(N3CCC4(CC3)OCCO4)cc2c1=O [Example 77, N-[6-(1,4-Dioxa-8-aza-spiro[4.5]dec-8-yl)-2,4-dioxo-7-trifluoromethyl-1,4-dihydro-2H-quinazolin-3-yl]-methanesulfonamide] | 253 to 262 °C | 
CS(=O)(=O)Nn1c(=O)[nH]c2cc(C(F)(F)F)c(N3CCC(=O)CC3)cc2c1=O [Example 78, N-[2,4-Dioxo-6-(4-oxo-piperidin-1-yl)-7-trifluoromethyl-1,4-dihydro-2H-quinazolin-3-yl]-methanesulfonamide] | 238 to 242 °C | 
CS(=O)(=O)Nn1c(=O)[nH]c2cc(C(F)(F)F)c(N3CCC3)cc2c1=O [Example 79, N-(6-Azetidin-1-yl-2,4-dioxo-7-trifluoromethyl-1,4-dihydro-2H-quinazolin-3-yl)-methanesulfonamide] | 266 to 283 °C | 
CS(=O)(=O)Nn1c(=O)[nH]c2cc(C(F)(F)F)c(Oc3cccnc3)cc2c1=O [Example 80, N-[2,4-Dioxo-6-(pyridin-3-yloxy)-7-trifluoromethyl-1,4-dihydro-2H-quinazolin-3-yl]-methanesulfonamide] | 194 to 196 °C | 
CN(C)c1cc2c(=O)n(NS(C)(=O)=O)c(=O)[nH]c2cc1C(F)(F)F [Example 81, N-(6-Dimethylamino-2,4-dioxo-7-trifluoromethyl-1,4-dihydro-2H-quinazolin-3-yl)-methanesulfonamide] | 254 to 272 °C | 
CS(=O)(=O)Nn1c(=O)[nH]c2cc(C(F)(F)F)c(NCCO)cc2c1=O [Example 82, N-[6-(2-Hydroxy-ethylamino)-2,4-dioxo-7-trifluoromethyl-1,4-dihydro-2H-quinazolin-3-yl]-methanesulfonamide] | 240 to 246 °C | 
COc1ccc(-c2cn(-c3cc4c(=O)n(NS(C)(=O)=O)c(=O)[nH]c4cc3C(F)(F)F)cn2)cc1 [Example 84, N-{6-[4-(4-Methoxy-phenyl)-imidazol-1-yl]-2,4-dioxo-7-trifluoromethyl-1,4-dihydro-2H-quinazolin-3-yl}-methanesulfonamide] | 293 to 294 °C | 
COCc1ccc(-c2cn(-c3cc4c(=O)n(NS(C)(=O)=O)c(=O)[nH]c4cc3C(F)(F)F)cn2)cc1 [Example 85, N-{6-[4-(4-Methoxymethyl-phenyl)-imidazol-1-yl]-2,4-dioxo-7-trifluoromethyl-1,4-dihydro-2H-quinazolin-3-yl}-methanesulfonamide] | 252 to 257 °C | 
COC(=O)c1cn(-c2cc3c(=O)n(NS(C)(=O)=O)c(=O)[nH]c3cc2C(F)(F)F)cn1 [Example 88, 1-(3-methanesulfonylamino-2,4-dioxo-7-trifluoromethyl-1,2,3,4-tetrahydro-quinazolin-6-yl)-1H-imidazole-4-carboxylic acid methyl ester] | 287 to 288 °C | 
CN(C)C(=O)c1cn(-c2cc3c(=O)n(NS(C)(=O)=O)c(=O)[nH]c3cc2C(F)(F)F)cn1 [Example 90, 1-(3-Methanesulfonylamino-2,4-dioxo-7-trifluoromethyl-1,2,3,4-tetrahydro-quinazolin-6-yl)-1H-imidazole-4-carboxylic acid dimethylamide] | 284 to 286 °C | 
CNC(=O)c1cn(-c2cc3c(=O)n(NS(C)(=O)=O)c(=O)[nH]c3cc2C(F)(F)F)cn1 [Example 91, 1-(3-Methanesulfonylamino-2,4-dioxo-7-trifluoromethyl-1,2,3,4-tetrahydro-quinazolin-6-yl)-1H-imidazole-4-carboxylic acid methylamide] | 292 to 295 °C | 
CS(=O)(=O)Nn1c(=O)[nH]c2cc(C(F)(F)F)c(-n3cnc(CO)c3)cc2c1=O [Example 93, N-[6-(4-Hydroxymethyl-imidazol-1-yl)-2,4-dioxo-7-trifluoromethyl-1,4-dihydro-2H-quinazolin-3-yl]-methanesulfonamide] | 225 to 230 °C | 
CS(=O)(=O)Nn1c(=O)[nH]c2cc(C(F)(F)F)c(-n3cnc(Br)c3)cc2c1=O [Example 95, N-[6-(4-Bromo-imidazol-1-yl)-2,4-dioxo-7-trifluoromethyl-1,4-dihydro-2H-quinazolin-3-yl]-methanesulfonamide] | 229 to 233 °C | 
CS(=O)(=O)Nn1c(=O)[nH]c2cc(C(F)(F)F)c(-n3cnc(C(F)(F)F)c3)cc2c1=O [Example 96, N-[6-(4-Trifluoromethyl-imidazol-1-yl)-2,4-dioxo-7-trifluoromethyl-1,4-dihydro-2H-quinazolin-3-yl]-methanesulfonamide] | 144 to 147 °C | 
COC(=O)Nc1cc2c(=O)n(NS(C)(=O)=O)c(=O)[nH]c2cc1C(F)(F)F [Example 101, (3-Methanesulfonylamino-2,4-dioxo-7-trifluoromethyl-1,2,3,4-tetrahydro-quinazolin-6-yl)carbamic acid methyl ester] | 232.4 to 240.2 °C | 
